{
  "source": "ChEMBL document CHEMBL1201862",
  "about": "“PubChem BioAssay data set” (2004)",
  "key": {"Mu-type opioid receptor": {"target": "Mu-type opioid receptor (Homo sapiens, UniProt P35372)", "sequence (P35372 whole entry)": "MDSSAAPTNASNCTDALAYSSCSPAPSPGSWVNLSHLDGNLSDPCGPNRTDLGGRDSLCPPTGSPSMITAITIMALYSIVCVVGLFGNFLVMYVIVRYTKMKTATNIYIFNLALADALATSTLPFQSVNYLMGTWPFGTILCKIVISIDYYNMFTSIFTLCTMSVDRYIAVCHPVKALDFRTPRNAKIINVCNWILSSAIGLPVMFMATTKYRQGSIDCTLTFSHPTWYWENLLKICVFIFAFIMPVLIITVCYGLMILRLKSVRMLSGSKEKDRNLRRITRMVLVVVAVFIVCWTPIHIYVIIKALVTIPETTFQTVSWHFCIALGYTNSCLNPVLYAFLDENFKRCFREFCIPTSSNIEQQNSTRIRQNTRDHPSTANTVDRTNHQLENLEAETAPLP", "assay": "SAR Analysis of Antagonists of the MOR Receptor using an Image-Based Assay - Set 3. [Related pubchem assays (depositor defined):AID1777, AID1785, AID1786, AID1966, AID2133, AID2136, AID2284, AID2285, AID2420]", "assay_type": "functional"}, "[1]": {"target": "T1, Kappa-type opioid receptor (Homo sapiens, UniProt P41145)", "T1 sequence (P41145 whole entry)": "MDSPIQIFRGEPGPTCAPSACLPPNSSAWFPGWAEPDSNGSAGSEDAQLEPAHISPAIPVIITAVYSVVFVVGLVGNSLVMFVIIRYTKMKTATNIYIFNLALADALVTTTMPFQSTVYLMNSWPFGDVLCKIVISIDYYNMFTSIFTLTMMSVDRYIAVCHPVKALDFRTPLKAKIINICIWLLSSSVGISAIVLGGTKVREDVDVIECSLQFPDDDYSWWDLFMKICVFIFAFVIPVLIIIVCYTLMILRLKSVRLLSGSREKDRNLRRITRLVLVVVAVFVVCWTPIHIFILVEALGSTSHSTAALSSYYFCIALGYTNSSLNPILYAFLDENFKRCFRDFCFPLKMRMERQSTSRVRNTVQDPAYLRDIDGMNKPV", "assay": "SAR analysis of small molecule antagonists of the kappa opioid receptor via a luminescent beta-arrestin assay - Set 6. [Related pubchem assays (depositor defined):AID1777, AID1778, AID1785, AID1786, AID1966, AID2133, AID2136, AID2285]", "assay_type": "functional"}, "[2]": {"target": "T1, Kappa-type opioid receptor", "assay": "SAR analysis of Antagonists of the Kappa Opioid Receptor (KOR) using an Image-Based Assay - Set 4. [Related pubchem assays (depositor defined):AID1777, AID1785]", "assay_type": "functional"}, "[3]": {"target": "T1, Kappa-type opioid receptor", "assay": "SAR analysis of small molecule antagonists of the kappa opioid receptor via a luminescent beta-arrestin assay - Set 4. [Related pubchem assays (depositor defined):AID1777, AID1778, AID1785, AID1786, AID1966, AID2133, AID2136, AID2285]", "assay_type": "functional"}, "[4]": {"target": "Delta-type opioid receptor (Homo sapiens, UniProt P41143)", "sequence (P41143 whole entry)": "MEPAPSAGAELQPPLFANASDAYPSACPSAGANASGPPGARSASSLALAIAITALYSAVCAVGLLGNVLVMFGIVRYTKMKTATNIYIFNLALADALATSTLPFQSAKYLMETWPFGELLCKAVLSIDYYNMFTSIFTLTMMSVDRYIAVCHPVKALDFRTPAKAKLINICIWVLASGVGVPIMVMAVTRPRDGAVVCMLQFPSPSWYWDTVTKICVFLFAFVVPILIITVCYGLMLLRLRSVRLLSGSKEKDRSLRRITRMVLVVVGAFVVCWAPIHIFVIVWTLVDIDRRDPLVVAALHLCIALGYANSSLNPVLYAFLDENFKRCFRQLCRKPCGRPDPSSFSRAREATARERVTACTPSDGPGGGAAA", "assay": "SAR Analysis of Antagonists of the DOR Receptor using an Image-Based Assay - Set 3. [Related pubchem assays (depositor defined):AID1777, AID1785]", "assay_type": "functional"}, "Caspase-7": {"target": "Caspase-7 (Homo sapiens, UniProt P55210)", "assay": "procaspase-7 activators, dose response, dual procaspase-3/-7 activator project, biochemical, absorbance, human (AID 504330)"}, "Caspase-3": {"target": "T2, Caspase-3 (Homo sapiens, UniProt P42574)", "T2 sequence (P42574 whole entry)": "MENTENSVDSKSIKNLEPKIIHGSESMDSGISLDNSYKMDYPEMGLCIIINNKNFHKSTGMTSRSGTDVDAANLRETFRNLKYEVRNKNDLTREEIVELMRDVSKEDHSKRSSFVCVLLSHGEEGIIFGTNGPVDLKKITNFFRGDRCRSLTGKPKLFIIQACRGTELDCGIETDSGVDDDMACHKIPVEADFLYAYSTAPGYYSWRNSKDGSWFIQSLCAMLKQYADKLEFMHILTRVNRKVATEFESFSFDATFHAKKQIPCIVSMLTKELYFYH", "assay": "procaspase-3 activation potency of dual hits, dose response, counter-screen for dual procaspase-3/7 activator project, biochemical, absorbance, PC-3 D3A mutant (AID 504328)"}, "[5]": {"assay": "THP-1 cell cytotoxicity, dose response, cytotoxicity control for non-replicating M. tuberculosis project (AID 489025)", "assay_type": "functional"}, "cells [6]": {"assay": "cells", "assay_type": "functional"}, "[7]": {"assay": "HepG2 cell cytotoxicity, dose response, cytotoxicity control for non-replicating M. tuberculosis project (AID 489018)", "assay_type": "functional", "settings": "Mycobacterium tuberculosis"}, "[8]": {"assay": "A High Throughput Confirmatory Assay used to Identify Novel Compounds that Inhibit Mycobacterium Tuberculosis in the absence of Glycerol.", "assay_type": "functional"}, "[9]": {"assay": "microbe, parasite or virus in culture", "assay_type": "functional", "settings": "Mycobacterium tuberculosis"}, "[10]": {"assay": "Counterscreen for IDE inhibitors: Luminescence-based cell-based high throughput dose response assay to identify compounds that are cytotoxic to HEK cells. [Related pubchem assays: 434962 (Primary screen (IDE inhibitors in singlicate)), 449730 (Counterscreen (Cytotoxicity in triplicate)), 435028 (Confirmation (IDE inhibitors in triplicate)) …", "assay_type": "functional", "settings": "HEK293"}, "[11]": {"target": "G-protein coupled receptor 35 (Homo sapiens, UniProt Q9HC97)", "sequence (Q9HC97 whole entry)": "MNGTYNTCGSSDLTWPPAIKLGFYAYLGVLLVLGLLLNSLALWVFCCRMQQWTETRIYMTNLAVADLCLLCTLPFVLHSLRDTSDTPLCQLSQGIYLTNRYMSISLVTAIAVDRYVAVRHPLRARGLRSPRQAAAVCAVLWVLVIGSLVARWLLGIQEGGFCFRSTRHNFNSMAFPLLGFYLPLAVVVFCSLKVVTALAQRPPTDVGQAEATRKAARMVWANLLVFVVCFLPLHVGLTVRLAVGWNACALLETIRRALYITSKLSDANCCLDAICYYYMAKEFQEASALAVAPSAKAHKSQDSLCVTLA", "assay": "GPR35 antagonists blocking zaprinast-driven arrestin recruitment, primary screen, imaging, U2OS, beta-arrestin-GFP, zaprinast agonist (AID 2058);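 further: antagonist potency meaning inhibition of agonist-induced arrestin redistribution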", "assay_type": "functional"}, "Insulin-degrading enzyme": {"target": "T3, Insulin-degrading enzyme (Homo sapiens, UniProt P14735)", "T3 sequence (P14735 whole entry)": "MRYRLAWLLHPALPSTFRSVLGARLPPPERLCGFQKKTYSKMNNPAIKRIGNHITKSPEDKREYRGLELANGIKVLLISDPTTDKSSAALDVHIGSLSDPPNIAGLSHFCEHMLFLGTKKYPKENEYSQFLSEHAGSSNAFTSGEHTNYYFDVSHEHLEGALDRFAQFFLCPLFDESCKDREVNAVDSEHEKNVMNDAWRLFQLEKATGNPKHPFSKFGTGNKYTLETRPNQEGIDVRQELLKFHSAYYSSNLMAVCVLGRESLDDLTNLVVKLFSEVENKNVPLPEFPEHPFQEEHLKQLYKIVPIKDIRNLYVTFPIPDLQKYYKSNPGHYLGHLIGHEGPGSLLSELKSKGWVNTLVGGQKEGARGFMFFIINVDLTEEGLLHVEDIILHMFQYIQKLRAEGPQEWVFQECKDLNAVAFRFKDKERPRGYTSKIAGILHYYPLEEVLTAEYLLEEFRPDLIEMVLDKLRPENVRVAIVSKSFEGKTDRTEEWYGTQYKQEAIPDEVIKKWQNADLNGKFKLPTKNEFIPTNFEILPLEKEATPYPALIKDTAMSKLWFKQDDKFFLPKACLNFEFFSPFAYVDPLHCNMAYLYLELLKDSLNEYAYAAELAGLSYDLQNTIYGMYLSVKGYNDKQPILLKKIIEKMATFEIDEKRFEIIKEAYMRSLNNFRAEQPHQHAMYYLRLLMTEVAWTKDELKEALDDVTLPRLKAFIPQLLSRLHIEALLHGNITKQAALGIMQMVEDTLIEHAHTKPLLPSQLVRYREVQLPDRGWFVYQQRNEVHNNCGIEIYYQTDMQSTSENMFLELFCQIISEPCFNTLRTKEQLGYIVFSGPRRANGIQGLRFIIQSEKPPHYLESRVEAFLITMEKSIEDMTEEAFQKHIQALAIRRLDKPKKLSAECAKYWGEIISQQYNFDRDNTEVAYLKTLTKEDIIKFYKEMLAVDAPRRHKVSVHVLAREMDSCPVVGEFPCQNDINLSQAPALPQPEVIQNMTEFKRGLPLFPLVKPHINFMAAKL", "assay": "Dose Response: Fluorescence polarization-based cell-based high throughput dose response assay for inhibitors of insulin-degrading enzyme (IDE). [Related pubchem assays: 434962 (Primary screen (IDE inhibitors in singlicate)), 449730 (Counterscreen (Cytotoxicity in triplicate)), 435028 (Confirmation (IDE inhibitors in triplicate)), 434984 (Summary …", "assay_type": "functional"}, "[12]": {"assay": "enhancers of respiration in Yfh1-depleted yeast, dose response, Friedreich's ataxia, plus single-dose screen (AID 1465);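 further: yeast depleted of Yfh1p frataxin homolog grown on glycerol needing respiration; WST-1 tetrazolium dye reduction as measure of cellular dehydrogenase metabolic activity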", "assay_type": "functional"}, "[13]": {"target": "T4, Neuropeptides B/W receptor type 1 (Homo sapiens, UniProt P48145)", "T4 sequence (P48145 whole entry)": "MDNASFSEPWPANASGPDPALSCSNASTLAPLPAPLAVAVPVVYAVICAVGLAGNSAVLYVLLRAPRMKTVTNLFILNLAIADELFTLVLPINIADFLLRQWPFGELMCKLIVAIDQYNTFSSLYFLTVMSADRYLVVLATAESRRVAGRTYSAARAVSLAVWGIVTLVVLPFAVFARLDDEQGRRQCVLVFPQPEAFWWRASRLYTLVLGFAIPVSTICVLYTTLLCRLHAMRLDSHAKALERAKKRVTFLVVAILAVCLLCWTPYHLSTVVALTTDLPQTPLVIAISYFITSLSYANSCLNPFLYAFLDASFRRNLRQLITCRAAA", "assay": "GPR7 antagonist potency, late-stage follow-up, cell-based, fluorescence, dose response (AID 463251)", "assay_type": "functional"}, "[14]": {"target": "Melanin-concentrating hormone receptor 1 (Homo sapiens, UniProt Q99705)", "sequence (Q99705 whole entry)": "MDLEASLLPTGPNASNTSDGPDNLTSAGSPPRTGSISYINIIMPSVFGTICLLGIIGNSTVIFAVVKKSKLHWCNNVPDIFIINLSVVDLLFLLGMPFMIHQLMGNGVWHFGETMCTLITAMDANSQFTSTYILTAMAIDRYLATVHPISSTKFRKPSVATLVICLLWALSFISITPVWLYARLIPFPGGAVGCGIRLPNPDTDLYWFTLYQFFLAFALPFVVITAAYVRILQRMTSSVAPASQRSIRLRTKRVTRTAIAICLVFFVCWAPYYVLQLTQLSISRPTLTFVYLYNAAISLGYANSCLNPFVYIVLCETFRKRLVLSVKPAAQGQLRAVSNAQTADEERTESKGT", "assay": "Late-stage fluorescence-based counterscreen for antagonists of the G-protein coupled receptor 7 (GPR7): cell-based dose response assay to identify antagonists of the melanin-concentrating hormone receptor 1 (MCHR1). [Related pubchem assays (depositor defined):AID1861, AID1880, AID1952, AID2148, AID2251, AID2257, AID485339]", "assay_type": "functional"}, "J774.A1": {"tested_on": "J774.A1", "assay": "Confirmation of image-based Screening Assay for Inhibitors of Phagocytosis. [Related pubchem assays (depositor defined):AID1029, AID1643]", "assay_type": "functional, cell-based", "settings": "Mus musculus"}, "[15]": {"assay": "cytotoxicity in HEK-293T cells, dose response, cytotoxicity control for TCR NF-kB inhibitor project, luminescence, T-cell screen hits (AID 489026);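 further: cells exposed to compound about 14 hours before the viability readout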", "assay_type": "functional, cell-based"}, "[16]": {"assay": "Luminescence Cell-Based Dose Response HTS to Identify Activators of Luciferase Translation or Activity in H4 […] Cells. [Related pubchem assays: 1829 (Project Summary), 1814 (Primary HTS)]", "assay_type": "functional"}, "H4": {"tested_on": "H4", "assay": "Luminescence Cell-Based Dose Response HTS to Identify Activators of 5'UTR Stem-Loop Driven Prion Protein mRNA Translation in H4 Neuroglioblastoma Cells. [Related pubchem assays: 1829 (Project Summary), 1814 (Primary HTS)]", "assay_type": "functional", "settings": "Homo sapiens"}, "[17]": {"target": "Polyadenylate-binding protein 1 (Homo sapiens, UniProt P11940)", "sequence (P11940 whole entry)": "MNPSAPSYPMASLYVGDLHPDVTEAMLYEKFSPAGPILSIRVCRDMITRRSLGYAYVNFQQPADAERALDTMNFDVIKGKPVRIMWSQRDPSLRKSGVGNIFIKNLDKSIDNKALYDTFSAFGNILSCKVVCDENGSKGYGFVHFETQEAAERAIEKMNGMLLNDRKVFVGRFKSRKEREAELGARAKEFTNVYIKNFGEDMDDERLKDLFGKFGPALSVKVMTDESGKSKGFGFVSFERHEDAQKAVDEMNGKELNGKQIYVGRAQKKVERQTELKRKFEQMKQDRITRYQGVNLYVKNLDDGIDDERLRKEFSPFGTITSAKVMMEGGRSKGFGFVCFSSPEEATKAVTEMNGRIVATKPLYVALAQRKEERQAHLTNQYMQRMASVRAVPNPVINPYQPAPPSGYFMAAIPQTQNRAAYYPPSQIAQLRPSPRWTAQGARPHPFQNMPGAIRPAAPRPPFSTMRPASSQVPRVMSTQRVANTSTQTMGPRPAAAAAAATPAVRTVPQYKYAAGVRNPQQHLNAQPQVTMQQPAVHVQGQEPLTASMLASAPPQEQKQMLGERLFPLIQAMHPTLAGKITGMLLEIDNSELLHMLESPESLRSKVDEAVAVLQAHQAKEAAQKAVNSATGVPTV", "assay": "PABP inhibition in translation initiation, SAR follow-up (AID 435018)", "assay_type": "functional"}, "[18]": {"target": "Eukaryotic translation initiation factor 4H (Homo sapiens, UniProt Q15056)", "assay": "eIF4H inhibition in translation initiation, SAR follow-up (AID 435011)", "assay_type": "functional"}, "[19]": {"target": "Beta-2 adrenergic receptor (Homo sapiens, UniProt P07550)", "sequence (P07550 whole entry)": "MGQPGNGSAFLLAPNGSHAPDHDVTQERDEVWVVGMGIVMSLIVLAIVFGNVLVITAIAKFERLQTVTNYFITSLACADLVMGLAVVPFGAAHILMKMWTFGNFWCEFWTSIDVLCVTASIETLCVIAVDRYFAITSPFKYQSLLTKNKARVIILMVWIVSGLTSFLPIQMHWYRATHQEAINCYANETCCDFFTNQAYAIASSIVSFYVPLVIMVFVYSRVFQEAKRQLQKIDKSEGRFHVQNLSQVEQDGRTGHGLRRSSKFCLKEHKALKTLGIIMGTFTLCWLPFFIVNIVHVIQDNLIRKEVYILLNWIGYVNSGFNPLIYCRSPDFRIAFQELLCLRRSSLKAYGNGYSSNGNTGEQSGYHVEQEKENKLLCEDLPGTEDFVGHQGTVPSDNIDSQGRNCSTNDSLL", "assay": "beta2AR agonists driving receptor internalization, dose response, cell-based, FAP fluorogen, flow cytometry, cherry pick 1 (AID 588763)", "assay_type": "functional"}, "MDA-MB-435": {"tested_on": "MDA-MB-435", "assay": "cells", "assay_type": "functional, cell-based", "settings": "Homo sapiens"}, "cells [20]": {"assay": "cells", "assay_type": "functional, cell-based", "settings": "PPC-1"}},
  "note": "Calls of active or inactive are those of the source.",
  "data": [
    {"molecule": "CC(C)N(CCNC(=O)c1ccc(CNS(=O)(=O)c2ccc(C3CCCCC3)cc2)cc1)Cc1ccccc1", "values": [
      {"measurement": "IC50", "setting": "Mu-type opioid receptor", "value": "2.47 µM (active)"},
      {"measurement": "IC50", "setting": "[1]", "value": "> 20 µM (inactive)"},
      {"measurement": "IC50", "setting": "[2]", "value": "1.22 µM (active)"},
      {"measurement": "IC50", "setting": "[3]", "value": "> 20 µM (inactive)"},
      {"measurement": "IC50", "setting": "[4]", "value": "> 32 µM (inactive)"}
    ]},
    {"molecule": "COc1ccc(C(=O)N/N=C/c2ccc3cccc(OCc4ccccc4)c3n2)cc1", "values": [
      {"measurement": "EC50", "setting": "Caspase-7", "value": "> 85.3 µM (inactive)"},
      {"measurement": "EC50", "setting": "Caspase-3", "value": "> 85.3 µM (inactive)"}
    ]},
    {"molecule": "CSc1ccc(NC(=O)Nc2cccn(Cc3ccccc3)c2=O)cc1", "values": [
      {"measurement": "CC50", "setting": "[5]", "value": "> 40 µM (active)"},
      {"measurement": "IC50", "setting": "cells [6]", "value": "11.4 µM (active)"},
      {"measurement": "CC50", "setting": "[7]", "value": "> 20 µM (active)"},
      {"measurement": "IC50", "setting": "[8]", "value": "> 100 µM (active)"},
      {"measurement": "CC50", "setting": "[9]", "value": "> 40 µM (active)"}
    ]},
    {"molecule": "N#C/C(=C\\c1ccc(N2CCCCC2)o1)C(N)=O", "values": [
      {"measurement": "IC50", "setting": "[10]", "value": "> 55.7 µM (not active)"},
      {"measurement": "IC50", "setting": "[11]", "value": "6.55 µM (active)"},
      {"measurement": "IC50", "setting": "Insulin-degrading enzyme", "value": "8.72 µM (active)"},
      {"measurement": "EC50", "setting": "[12]", "value": "> 100 µM (active)"}
    ]},
    {"molecule": "Cc1ccc(-n2ncc(Cl)c(Oc3ccc(F)cc3C)c2=O)cc1", "values": [
      {"measurement": "IC50", "setting": "[13]", "value": "10 µM (active)"},
      {"measurement": "IC50", "setting": "[14]", "value": "17 µM (inactive)"}
    ]},
    {"molecule": "Cc1cc(=O)oc2cc(OCC3CC(c4ccccc4Cl)=NO3)ccc12", "note": "(configuration not stated)", "values": [
      {"measurement": "IC50", "setting": "J774.A1", "value": "> 25 µM (inactive)"},
      {"measurement": "IC50", "setting": "[15]", "value": "> 80 µM (inactive)"},
      {"measurement": "EC50", "setting": "[16]", "value": "11.7 µM (active)"},
      {"measurement": "EC50", "setting": "H4", "value": "> 120 µM (not active)"}
    ]},
    {"molecule": "COc1cccc(/C=C2/NC(=O)N(CC(=O)Nc3ccc(C)cc3)C2=O)c1OCc1cccc(C(=O)O)c1", "values": [
      {"measurement": "IC50", "setting": "[17]", "value": "> 100 µM (inactive)"},
      {"measurement": "IC50", "setting": "[18]", "value": "10.6 µM (active)"}
    ]},
    {"molecule": "CC(Sc1nc(-c2ccccc2)cc(C(F)(F)F)n1)C(=O)N1CCCC1", "note": "(configuration not stated)", "values": [
      {"measurement": "EC50", "setting": "[19]", "value": "0.243 µM (active)"},
      {"measurement": "IC50", "setting": "MDA-MB-435", "value": "> 10 µM (inactive)"},
      {"measurement": "IC50", "setting": "cells [20]", "value": "> 10 µM (inactive)"}
    ]}
  ]
}
